Test results reported in patent US20120122991A1, “METHOD FOR TREATING CANCER BY INCREASING AMP-ACTIVATED KINASE ACTIVITY” (Dana-Farber Cancer Institute, Inc., priority 2003, published 2012).

Tests used:
quiescent cells = details: cited from earlier work
mTOR signaling = test: Immunoblot and cap-complex analysis of mTOR signaling (S6K1, S6, 4E-BP1, GSK-3) in MEFs; assay type: cell-based, mouse
Procedure: FIG. 6A: Subconfluent cycling littermate-matched primary MEFs of the indicated genotype were left untreated (NT) or were treated with 2 mM AICAR for 2 h. Total cell extracts were immunoblotted for phospho-Thr172 AMPK (P-AMPK), phospho Ser79 ACC (P-ACC), phospho-Thr389 S6K1 (P-S6K1), phospho-Ser9 GSK-3b (P-GSK-3), and phospho-Ser235/236 S6 ribosomal protein (P-S6). FIG. 6B: An immortalized LKB1−/− MEF cell line was reconstituted with vector (v), wild-type (wt) or kinase-dead (kd) human LKB1-expressing retroviruses. Cells were treated as in FIG. 6A. eIF4E was used as a loading control. *represents a cross-reactive band with the anti-LKB1 antisera as characterized previously (Shaw et al. (2004) Proc. Natl. Acad. Sci. USA 101, 3329-3335). FIG. 6C: Endogenous 5′ cap complexes were isolated from LKB1 primary MEFs as in A. 10% of the total cell lysate is shown in the left panels; cap complexes purified on 7-methyl sepharose are shown in right panels. Each were immunoblotted with total 4E-BP1 and eIF4E antibodies. eIF4E is shown as a loading control. FIG. 6D: Hela cells (which are LKB1-deficient) were transiently transfected with vector, FLAG-tagged wild-type, or kinase-dead LKB1 along with an HA-tagged S6K1 or an HA-tagged 4E-BP1 construct, then treated where indicated with 2 mM AICAR for 2 h. S6K1-immunoprecipitates were immunoblotted for activating phosphorylation of S6K1 as before, as well with anti-HA to control for levels. Lysates were immunoblotted with anti-FLAG to detect levels of LKB1 and with anti-HA to detect phosphorylation induced changes in 4E-BP1 mobility on SDS-PAGE.
FIGS. 8A and 8B: Littermate matched LKB1- or TSC2-deficient MEFs were compared to wild-type MEFs in their response to a number of stress stimuli known to inhibit mTOR signaling (wild-type cells denoted +, −/− cells simply−). mTOR signaling was examined by immunoblotting for phospho-S6 as in FIG. 6. Activation of Akt and Erk were examined using their specific activation state phospho-specific antibodies (Ser473 for Akt, Thr202/Tyr204 for Erk). As before, eIF4E is used as a loading control. All MEFs were serum-deprived in DMEM alone for 24 h. Indicated samples were then placed in fresh media containing 10% serum, with or without […] rapamycin or 2 mM AICAR, all for 90 min. Amino acid deprivation (-AA) was performed by placing the serum-starved cells into D-PBS with 10% dialyzed serum for 90 min. […] Cells were placed in normal media, glucose free media with 10% dialyzed serum, or glucose-free media with 10% dialyzed serum containing 20 nM rapamycin for 6 or 24 h as indicated. LKB1 genotype indicated at bottom. eIF4E is used as a loading control. FIG. 8D: Cells were treated for 24 h as in FIG. 8C, and viability was quantified by MTT assays performed in triplicate on cells of the indicated genotypes. Cell death is expressed as a percentage of the untreated controls.
Cells were cultured and retrovirally infected as previously described (Shaw et al. (2004), Proc. Natl. Acad. Sci. USA 101:3329-3335). […] Cells were serum-starved in DMEM without serum 14 h post-transfection, then 8 h later the media was replaced with fresh DMEM with 10% FBS or DMEM with 10% FBS and 2 mM AICAR. For the MEF experiments in FIG. 6: cells were plated at 1×10^6 cells/10 cm dish, then the next day the media was replaced with fresh DMEM with 10% FBS or DMEM with 10% FBS and 2 mM AICAR. For the MEF experiments in FIG. 8A,B: 1×10^6 cells of each genotype were plated and the next day serum-starved for 24 h. Cells were either lysed as such or their media replaced with fresh DMEM with 10% FBS, DMEM with 10% FBS and 2 mM AICAR, DMEM with 10% FBS and 20 nM rapamycin, or D-PBS with 10% dialyzed FBS for 90 mins.

NC(=O)c1ncn([C@@H]2O[C@H](CO)[C@@H](O)[C@H]2O)c1N [AICAR, 5-aminoimidazole-4-carboxamide 1-β-D-ribofuranoside]
glucocorticoid induced apoptosis (quiescent cells): protects them from glucocorticoid induced apoptosis
S6K1 activity (mTOR signaling; Lkb1-/- MEFs, serum-starved 24 h, 10% serum with 2 mM AICAR for 90 min): failed to down-regulate S6K1 activity
hypophosphorylated 4E-BP1 in total cell lysates (mTOR signaling; Lkb1-deficient cells, AICAR treatment): near absence of hypophosphorylated 4E-BP1
levels of active S6K1 (mTOR signaling; Lkb1-deficient fibroblasts, 2 mM AICAR for 2 h): remained high
growth factor signaling to GSK-3 (mTOR signaling; MEFs, 2 mM AICAR for 2 h): unaffected
S6K1 activity (mTOR signaling; wild-type MEFs, 2 mM AICAR for 2 h): inhibited
level of hypophosphorylated 4E-BP1 (mTOR signaling; wild-type MEFs, AICAR treatment): significantly increases
4E-BP1 association with the cap complex (mTOR signaling; wild-type MEFs, AICAR treatment, 7-methyl GTP sepharose): increased 4E-BP1 association with the cap complex
